From patent US8927541B2, “Tricyclic antibiotics” (Basilea Pharmaceutica AG, priority 2009, dated 2015)

Tests used:
Format in all cases: cell-based
[1] = tested on: Streptococcus pneumoniae ATCC49619; test: Antimicrobial activity assay, MIC by broth microdilution (CAMHB with 5% horse serum); details: 35° C., 20 to 24 h
Protocol: (§1) The antibacterial activity of compounds is determined by the minimal inhibitory concentration (MIC) method. MICs for all bacteria except pneumococci and Haemophilus influenzae are obtained by broth microdilution with cation-adjusted Mueller-Hinton broth (CAMHB; BBL), according to CLSI guidelines (National Committee for Clinical Laboratory Standards. 2003. Methods for dilution antimicrobial susceptibility tests for bacteria that grow aerobically, 5th ed.; a approved standard M7-A6. National Committee for Clinical Laboratory Standards, Wayne, Pa.), with the following modifications: (i) for pneumococci CAMHB is supplemented with 5% (^v/v) horse serum; (ii) for Haemophilus influenzae CAMHB is supplemented with 5% (^v/v) Fildes enrichment (BBL) (Pankuch, G. A., Hoellman, D. B., Lin, G., Bajaksouzian, S., Jacobs, M. R., and Appelbaum, P. C. 1998. Activity of HMR 3647 compared to those of five agents against Haemophilus influenzae and Moraxella catarrhalis by MIC determination and time-kill assay. Antimicrob. Agents Chemother. 42:3032-3034). Microtiter plates are incubated at 35° C. in ambient air for 20 to 24 h, then inspected using an illuminated microtiter plate reader fitted with a magnifying mirror (MIC 2000; Cooke Laboratory Products, Alexandria, Va.). Compounds of the present invention are tested against several bacteria strains comprising some Acinetobacter baumannii, Enterococcus faecalis, Enterococcus faecium, Escherichia coli, Haemophilus influenzae, Klebsiella pneumoniae, Pseudomonas aeruginosa, Staphylococcus aureus, Staphylococcus epidermidis, Streptococcus pyogenes; Enterobacter aerogenes; Enterobacter cloacae and Streptococcus pneumoniae. All exemplified compounds have a MIC values for Staphylococcus aureus ATCC29213, Staphylococcus epidermidis ATCC14990 and Streptococcus pneumoniae ATCC49619 lower or equal to 8 mg/L except examples 25 and 56 for Staphylococcus epidermidis ATCC14990 and examples 20, 49, 51, 56, 58, 60, 66 and 76 for Streptococcus pneumoniae ATCC4961.

[2] = tested on: Escherichia coli ATCC2592; test: Antimicrobial activity assay, MIC by broth microdilution; details: 35° C., 20 to 24 h
Protocol: as §1

[3] = tested on: Staphylococcus aureus and/or Staphylococcus epidermidis and/or Streptococcus pneumoniae and/or Escherichia coli; test: MIC, summary statement for staphylococci, pneumococci and E. coli; details: 'generally'
Protocol: (§2) The antibacterial activity of compounds is determined by the minimal inhibitory concentration (MIC) method. MICs for all bacteria except pneumococci and Haemophilus influenzae are obtained by broth microdilution with cation-adjusted Mueller-Hinton broth (CAMHB; BBL), according to CLSI guidelines (National Committee for Clinical Laboratory Standards. 2003. Methods for dilution antimicrobial susceptibility tests for bacteria that grow aerobically, 5th ed.; a approved standard M7-A6. National Committee for Clinical Laboratory Standards, Wayne, Pa.), with the following modifications: (i) for pneumococci CAMHB is supplemented with 5% (^v/v) horse serum; (ii) for Haemophilus influenzae CAMHB is supplemented with 5% (^v/v) Fildes enrichment (BBL) (Pankuch, G. A., Hoellman, D. B., Lin, G., Bajaksouzian, S., Jacobs, M. R., and Appelbaum, P. C. 1998. Activity of HMR 3647 compared to those of five agents against Haemophilus influenzae and Moraxella catarrhalis by MIC determination and time-kill assay. Antimicrob. Agents Chemother. 42:3032-3034). Microtiter plates are incubated at 35° C. in ambient air for 20 to 24 h, then inspected using an illuminated microtiter plate reader fitted with a magnifying mirror (MIC 2000; Cooke Laboratory Products, Alexandria, Va.). […]

[4] = tested on: Staphylococcus aureus and/or Staphylococcus epidermidis and/or Streptococcus pneumoniae; test: MIC, summary statement for staphylococci and pneumococci; details: 'generally'
Protocol: as §2

SMILES | MIC [1] [µg/mL] | MIC [2] [µg/mL] | other results
COc1ccc2ncc3c(c2n1)OC([C@H]1CC[C@H](NC(=O)c2ccc4c(c2)NC(=O)CS4)CC1)CN3C (relative stereo) [Example 49, 3-oxo-3,4-dihydro-2H-benzo[1,4]thiazine-6-carboxylic acid [trans-4-(6-methoxy-1-methyl-2,3-dihydro-1H-4-oxa-1,5,9-triaza-phenanthren-3-yl)-cyclohexyl]-amide] | > 8 | – | –
COc1ccc2ncc3c(c2c1)CC(n1cc(NCCSc2cccs2)cn1)CO3 (stereo not drawn) [Example 20, [1-(6-methoxy-3,4-dihydro-2H-1-oxa-9-aza-phenanthren-3-yl)-1H-pyrazol-4-yl]-[2-(thiophen-2-ylsulfanyl)-ethyl]-amine] | > 8 | – | –
COc1ccc2ncc3c(c2c1)CC(N1CCC(NCc2ccc4c(c2)NC(=O)CS4)CC1)CO3 (stereo not drawn) [Example 2, 6-{[1-(6-methoxy-3,4-dihydro-2H-1-oxa-9-aza-phenanthrene-3-yl)-piperidin-4-ylamino]-methyl}-4H-benzo[1,4]thiazine-3-one] | – | ≤ 8 | –
COc1ccc2ncc3c(c2n1)N(C)C(c1ccc(NC(=O)c2ccc4c(c2)NC(=O)CS4)cn1)CO3 (stereo not drawn) [Example 27, 3-oxo-3,4-dihydro-2H-benzo[1,4]thiazine-6-carboxylic acid [6-(6-methoxy-4-methyl-3,4-dihydro-2H-1-oxa-4,5,9-triaza-phenanthren-3-yl)-pyridin-3-yl]-amide] | – | ≤ 8 | MIC [3]: ≤ 8 µg/mL
COc1ccc2ncc3c(c2c1)CC(N1CCC(NC(=O)c2ccc4c(c2)NC(=O)CS4)CC1)CO3 (stereo not drawn) [Example 1, 3-oxo-3,4-dihydro-2H-benzo[1,4]thiazine-6-carboxylic acid [1-(6-methoxy-3,4-dihydro-2H-1-oxa-9-aza-phenanthrene-3-yl)-piperidin-4-yl]-amide] | – | ≤ 8 | –
COc1ccc2ncc3c(c2c1)CC(n1cc(NC(=O)c2ccc4c(c2)NC(=O)CS4)cn1)CO3 (stereo not drawn) [Example 4, 3-oxo-3,4-dihydro-2H-benzo[1,4]thiazine-6-carboxylic acid [1-(6-methoxy-3,4-dihydro-2H-1-oxa-9-aza-phenanthrene-3-yl)-1H-pyrazol-4-yl]-amide] | – | ≤ 8 | –
COc1ccc2ncc3c(c2n1)NC([C@H]1CC[C@H](NC(=O)c2ccc4c(c2)NC(=O)CO4)CC1)CO3 (relative stereo) [Example 35, 3-oxo-3,4-dihydro-2H-benzo[1,4]oxazine-6-carboxylic acid [trans-4-(6-methoxy-3,4-dihydro-2H-1-oxa-4,5,9-triaza-phenanthren-3-yl)-cyclohexyl]-amide] | – | ≤ 8 | MIC [3]: ≤ 8 µg/mL
COc1ccc2ncc3c(c2n1)CC([C@H]1CC[C@H](NC(=O)c2ccc4c(c2)NC(=O)CS4)CC1)CN3 (relative stereo) [Example 76, 3-oxo-3,4-dihydro-2H-benzo[1,4]thiazine-6-carboxylic acid [trans-4-(6-methoxy-1,2,3,4-tetrahydro-1,5,9-triaza-phenanthren-3-yl)-cyclohexyl]-amide] | > 8 | – | –
O=C1CSc2ccc(C(=O)N[C@H]3CC[C@H](C4COc5cnc6ccccc6c5C4)CC3)cc2N1 (relative stereo) [Example 50, 3-oxo-3,4-dihydro-2H-benzo[1,4]thiazine-6-carboxylic acid [trans-4-(3,4-dihydro-2H-1-oxa-9-aza-phenanthren-3-yl)-cyclohexyl]-amide] | – | – | MIC [4]: ≤ 8 µg/mL
COc1ccc2ncc3c(c2c1)CC(N1CCC(NCc2ccc4c(c2)NC(=O)CO4)CC1)CS3 (stereo not drawn) [Example 3, 6-{[1-(6-methoxy-3,4-dihydro-2H-1-thia-9-aza-phenanthrene-3-yl)-piperidin-4-ylamino]-methyl}-4H-benzo[1,4]oxazin-3-one] | – | ≤ 8 | –
